“And” between values parts separate entries of the source, which are not always exact repeats. Equal values may be shown once. Each block holds one molecule with its values, some of them ahead of it.
Experiments:
A549 cells [1] = test: Cellular uptake of PS, A549; assay type: cell-based, human; conditions: 1 h; for increase in the intracellular accumulation of PS by transporter inhibitor: co-incubation with 100 μM PS
SW480 cells = test: Cellular uptake of PS, SW480; assay type: cell-based, human; conditions: 1 h; for enhancement of the cellular accumulation of PS by transporter inhibitor: co-incubation with 100 μM PS
[2] = Pharmacokinetic study in mice, plasma PS metabolites by HPLC; assay type: in vivo
[3] = Plasma and tumor drug levels at end of xenograft study; assay type: in vivo, nude mice
A549 cells [4] = test: Cell growth inhibition; assay type: cell-based, human; conditions: PS 80 μM 24 h, curcumin 100 μM pretreatment
A549 xenografts = test: A549 subcutaneous xenografts in nude mice; assay type: in vivo; conditions: for inhibition of human lung cancer xenografts (abstract, measure not named): PS 200 mg/kg, curcumin 500 mg/kg, oral gavage; for tumor volume at the end of the study: day 36, mean ± SEM; for reduction in tumor volume: end of study
lung cancer = conditions: pre-clinical models of lung cancer; cited from earlier work
A549 cells [5] = test: Apoptotic cell death analysis; assay type: cell-based, human; conditions: 20-h incubation
[6] = test system: human lung cancer xenografts; conditions: cited from earlier work
[7] = plasma metabolite after PS 200 mg/kg + curcumin 500 mg/kg in 10% Tween-80
[8] = plasma metabolite after PS 200 mg/kg + curcumin 500 mg/kg in micelles
[9] = plasma metabolite after single oral dose PS 200 mg/kg alone
[10] = curcumin 25 μM co-added with PS
[11] = PS 200 mg/kg/d, curcumin 500 mg/kg/d
[12] = vs control, PS 200 mg/kg/d, curcumin 500 mg/kg/d

SMILES: COc1ccc(CCN(C)CCCC(C#N)(c2ccc(OC)c(OC)c2)C(C)C)cc1OC (stereo not shown) [verapamil]
increase in the intracellular accumulation of PS by transporter inhibitor (A549 cells [1]): no effect
enhancement of the cellular accumulation of PS by transporter inhibitor (SW480 cells): 67%

Cmax [2, 7]: 11.7 µM
Tmax [2, 7]: 4 h
Cmax [2, 8]: 7.7 µM
Tmax [2, 8]: 4 h
Cmax [2, 9]: 5.6 µM
Tmax [2, 9]: 4 h
level in A549 xenografts, PS plus curcumin group vs PS alone group [3]: 5 fold higher
SMILES: CC1=C(CC(=O)O)c2cc(F)ccc2/C1=C\c1ccc(S(C)(=O)=O)cc1 [Sulindac sulfone, sulindac sulfone]

level in A549 xenografts, PS plus curcumin group vs PS alone group [3]: 3 fold higher
SMILES: CSc1ccc(/C=C2/C(C)=C(CC(=O)O)c3cc(F)ccc32)cc1 [Sulindac sulfide, sulindac sulfide]

SMILES: COc1ccc2c3c([nH]c2c1)[C@H](CC(C)C)N1C(=O)[C@H](CCC(=O)OC(C)(C)C)NC(=O)[C@@H]1C3 [Ko143]
increase in the intracellular accumulation of PS by transporter inhibitor (A549 cells [1]): no effect

SMILES: COc1cc(/C=C/C(=O)CC(=O)/C=C/c2ccc(O)c(OC)c2)ccc1O [curcumin, Curcumin, reference compound]
reduction of cell viability (A549 cells [4]): 4%
increase of intracellular levels of PS (A549 cells [1]; curcumin 5 μM co-added with PS): 23%
increase of intracellular levels of PS (A549 cells [1]; [10]): 60%
increase of uptake of PS (SW480 cells; curcumin 5 μM co-added with PS): 37%
increase of uptake of PS (SW480 cells; [10]): 54%
inhibition of human lung cancer xenografts (abstract, measure not named) (A549 xenografts): no effect
adverse effects on the mice during the study (A549 xenografts; [11]): no apparent adverse effects
body weight at sacrifice (A549 xenografts; [11]): 23 ± 1 g
effect on the growth of A549 xenografts (in words) (A549 xenografts; [11]): did not significantly inhibit
tumor volume at the end of the study (A549 xenografts; [11]): 599±98 mm^3
reduction in tumor volume (A549 xenografts; [12]): no inhibition
efficacy as a single agent (lung cancer): < 30%

level in the plasma ([3]; curcumin and PS plus curcumin groups): minute levels
SMILES: COc1cc(/C=C/C(=O)CC(=O)/C=C/c2ccc(O[C@@H]3O[C@H](C(=O)O)[C@@H](O)[C@H](O)[C@H]3O)c(OC)c2)ccc1O [curcumin glucuronide]
detection in A549 xenografts [3]: Neither curcumin, nor its glucuronide, was detected

SMILES: CN(C)C(=O)CCSC(SCCC(=O)O)c1cccc(/C=C/c2ccc3ccc(Cl)cc3n2)c1 (stereo not shown) [MK571]
increase in the intracellular accumulation of PS by transporter inhibitor (A549 cells [1]): 51%
enhancement of the cellular accumulation of PS by transporter inhibitor (SW480 cells): 30%

increase of Cmax vs PS alone ([2]; PS co-administered with curcumin in 10% Tween-80): 70%
increase of Cmax vs PS alone ([2]; PS co-administered with curcumin in nanoparticles): 40%
level in A549 xenografts, PS plus curcumin group vs PS alone group [3]: 1 fold higher
SMILES: CC1=C(CC(=O)O)c2cc(F)ccc2/C1=C\c1ccc([S+](C)[O-])cc1 (stereo not shown) [Sulindac, sulindac, reference compound]

intact PS in plasma ([2]; any of the three treatments): not detected
total plasma AUC0–24 h (sum of all metabolites) ([2]; single oral dose PS 200 mg/kg, curcumin 500 mg/kg): 211 µM·h
SMILES: CCOP(=O)(OCC)OCCCCOC(=O)CC1=C(C)/C(=C/c2ccc([S+](C)[O-])cc2)c2ccc(F)cc21 (stereo not shown) [PS, Phospho-sulindac]
reduction of cell viability (A549 cells [4]): 30%
percentage of apoptotic cells (A549 cells [5]; PS 80 μM alone or with curcumin 100 μM): 3.9%
percentage of apoptotic cells (A549 cells [5]; PS 100 μM alone or with curcumin 100 μM): 5.0%
inhibition of human lung cancer xenografts (abstract, measure not named) (A549 xenografts): 25%
adverse effects on the mice during the study (A549 xenografts; [11]): no apparent adverse effects
body weight at sacrifice (A549 xenografts; [11]): 23 ± 1 g
effect on the growth of A549 xenografts (in words) (A549 xenografts; [11]): did not significantly inhibit
tumor volume at the end of the study (A549 xenografts; [11]): 419±36 mm^3
reduction in tumor volume (A549 xenografts; [12]): 19.6% and 20%
reduction in tumor weight (A549 xenografts; end-point, vs control, PS 200 mg/kg/d, curcumin 500 mg/kg/d): 27%
efficacy as a single agent in the treatment of human lung cancer xenografts [6]: ineffective

Source: PMC3787887 (International Journal of Oncology, 2013)
